The target of experiment [1] is T1, PbdA (Rhodococcus jostii, UniProt Q0SCI3).
T1 sequence (Q0SCI3 1-400): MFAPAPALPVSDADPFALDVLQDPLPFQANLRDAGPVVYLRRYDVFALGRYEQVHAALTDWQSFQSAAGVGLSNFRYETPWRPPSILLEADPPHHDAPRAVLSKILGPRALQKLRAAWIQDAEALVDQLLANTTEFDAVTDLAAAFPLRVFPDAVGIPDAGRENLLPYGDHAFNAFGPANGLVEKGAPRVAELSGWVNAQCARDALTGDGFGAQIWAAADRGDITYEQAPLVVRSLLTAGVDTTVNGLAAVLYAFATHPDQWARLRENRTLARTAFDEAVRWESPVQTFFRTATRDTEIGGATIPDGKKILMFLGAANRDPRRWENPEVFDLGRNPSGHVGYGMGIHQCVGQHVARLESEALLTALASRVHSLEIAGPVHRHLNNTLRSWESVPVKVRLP
Particulars: WT PbdAB; for Coupling: ratio of aromatic turnover rate to NADH oxidation rate. How it is done: We then measured coupling under optimum conditions for other substrates. […] Finally, we measured the apparent steady-state kinetic parameters of the PbdA reaction under conditions of maximal coupling (Fig. S4).
For activity measurements 0.25 to 1 μM of PbdA and PbdB were combined in a 200 μl cuvette in 20 mM Mops, pH 7.2 with substrate diluted in the same buffer. NADH was added to 350 μM to initiate the reaction. For HPLC analysis, enzymatic reactions were acidified by adding acetic acid to 10% final concentration, centrifuged (16,000×g for 10 min), and filtered through a 0.2 μm polytetrafluoroethylene membrane. Samples were run over a Luna 5 μm C18(2) 100 Å 150 × 3 mm column (Phenomenex) at 0.7 ml min^−1 by a Waters 2695 separation HPLC module. Samples were eluted with a 16.8 ml linear gradient from 1% methanol plus 0.1% formic acid in water to 100% methanol plus 0.1% formic acid and monitored at 280 nm with a Waters 2996 photodiode array detector. Concentrations were determined by interpolation on a standard curve of 0 to 1 mM of authentic standard. NADH concentration was measured by absorbance at 340 nm, ε = 6.22 mM^-1 cm^-1. Coupling was calculated from the ratio of rate of aromatic turnover, as determined by HPLC, and the rate of NADH oxidation, determined spectroscopically. Buffer ionic strength was adjusted by addition of NaCl, as appropriate. Apparent steady-state kinetic parameters were calculated by fitting Michaelis–Menten equations to initial velocity of reactions at various concentrations of aromatic substrate (LEONORA).

For experiment [2], the system named is CYP199A2. Details: method as in PMID 20024082. Conditions: cited from earlier work.
In experiment [3] the target is T1, PbdA. In words: Substrate binding to PbdA (WT) by type I spectral shift titration. Also noted: hexaHis (N, cleaved yes); made in house; host or cells: PbdA: E. coli BL-21 λ (DE3); PbdB: Rhodococcus jostii RHA1. How it is done: The affinity of PbdA for various LDACs was measured by the type I spectral shift upon titration of aromatic compound (Fig. 2). This shift occurs as the compound displaces a water coordinated to the heme iron, initiating a spin state transition in the latter from a low spin, hexacoordinate, to a high spin, pentacoordinate form.
Figure 2 Substrate binding of PbdA. A, difference spectra of PbdA titrated with 1 to 50 μM p-MBA from the substrate-free enzyme. Darker colors indicate higher concentration of p-MBA. Spectra were collected after each addition of substrate to 1 μM enzyme in 20 mM Mops, I = 0.1 M, pH 7.2. B, binding isotherm of PbdA and p-MBA. The fitted curve represents a simple hyperbola. p-MBA, para-methoxybenzoate.
UV-visible spectroscopy was conducted with a Cary 60 spectrophotometer equipped with a thermostatted cuvette holder at 25 °C. Scans of purified proteins diluted in 20 mM Mops, I = 0.1 M, pH 7.2 were taken between 250 and 700 nm. Heme concentration was calculated as described previously ([35]). Carbon monoxide binding was determined by reduction of PbdA diluted in 20 mM Mops, I = 0.1 M, pH 7.2 as above by a few grains of […]. CO was bubbled into the reduced enzyme for approximately 60 s at a rate of one bubble per second. Dissociation constants (Kd) were determined by titration of ligands diluted into enzyme buffer from 1 M stocks prepared in dimethyl sulfoxide into PbdA diluted in 20 mM Mops, I = 0.1 M, pH 7.2. Spectra take upon addition of substrate were subtracted from the spectrum of the enzyme, and peak-to-trough distance was plotted by ligand concentration. Kd values were determined by fitting a hyperbolic equation to the data as described previously ([23], [36]). The proportion of high-spin heme iron was determined using the approximate peak-to-trough extinction coefficient (ε ≈ 100 mM^−1 cm^−1) ([36]).

SMILES strings stand for the structures. Read-outs that look alike come from different tables or passages of the source.

Broadly, the Kd is the constant that tells how readily two partners part at equilibrium. As to `COc1ccc(C(=O)O)cc1OC` [Veratrate, veratrate], the NADH depletion rate in experiment [1] (air-saturated MOPS (I = 0.1 M), pH 7.2, 25 °C, SD in parentheses) is 2830 (50) U mg P450^-1. Besides, the “Rate of Aromatic turnover” value in experiment [1] (appearance of O-demethylated product (disappearance of p-EB), SD in parentheses) is on record as 2030 (60) U mg P450^-1. Further, the Coupling in experiment [1] is 72 (3) %; in experiment [1] (listed as veratrate) it was “approximately 75%”. The Turnover of substrate result in experiment [2] was “did not detectibly turn over”. Further, the Kd in experiment [3] came to 18 µM. Besides, the “%High-spin (percent of heme iron in high-spin state)” value in experiment [3] (WT PbdA, on substrate binding) turned out to be 84%.

The values are drawn from PMC11530827, “Characterization of a cytochrome P450 that catalyzes the O-demethylation of lignin-derived benzoates” (The Journal of Biological Chemistry, 2024).
